Key:
Conditions in all cases: human; call rule not given here
Hepatotoxicity [1] = assay: FDA HLAED, lactate dehydrogenase (LDH) increase
Hepatotoxicity [2] = assay: FDA HLAED, liver enzyme composite activity
Hepatotoxicity [3] = assay: FDA HLAED, serum glutamic oxaloacetic transaminase (SGOT) increase
Hepatotoxicity [4] = assay: FDA HLAED, gamma-glutamyl transferase (GGT) increase
Hepatotoxicity [5] = assay: FDA HLAED, serum glutamic pyruvic transaminase (SGPT) increase
Hepatotoxicity [6] = assay: FDA HLAED, alkaline phosphatase increase
Wherever GGT Increase - Index Value is given: reference of the scale not given here.
Wherever LDH Increase - Index Value is given: reference of the scale not given here.

Structure (SMILES)	LDH Increase - Activity Score (Hepatotoxicity [1])	LDH Increase - Index Value (Hepatotoxicity [1])	LDH Increase - Number of Reports (Hepatotoxicity [1])	Composite Activity - Active (Hepatotoxicity [2]; Liver)	Composite Activity - Marginal (Hepatotoxicity [2]; Liver)	SGOT Increase - Activity Score (Hepatotoxicity [3])	SGOT Increase - Index Value (Hepatotoxicity [3])	SGOT Increase - Number of Reports (Hepatotoxicity [3])	GGT Increase - Activity Score (Hepatotoxicity [4])	GGT Increase - Index Value (Hepatotoxicity [4])	GGT Increase - Number of Reports (Hepatotoxicity [4])	SGPT Increase - Activity Score (Hepatotoxicity [5])	SGPT Increase - Index Value (Hepatotoxicity [5])	SGPT Increase - Number of Reports (Hepatotoxicity [5])	Alkaline Phosphatase Increase - Activity Score (Hepatotoxicity [6])	Alkaline Phosphatase Increase - Index Value (Hepatotoxicity [6])	Alkaline Phosphatase Increase - Number of Reports (Hepatotoxicity [6])	Composite Activity - Active (Hepatotoxicity [2])	Composite Activity - Marginal (Hepatotoxicity [2])	Composite Activity - Score (Hepatotoxicity [2])	also measured
COc1cc([C@@H]2c3cc4c(cc3[C@@H](O[C@@H]3O[C@@H]5CO[C@@H](C)O[C@H]5[C@H](O)[C@H]3O)[C@H]3COC(=O)[C@H]23)OCO4)cc(OC)c1O [ETOPOSIDE]	Inactive	0.4	< 4	0	0	Inactive	0.4	< 4	Inactive	0	< 4	Inactive	0	< 4	Inactive	0.8	< 4				Composite Activity - Score (Hepatotoxicity [2]; Liver): Inactive
CCOC(=O)/C=C(C)/C=C/C=C(C)/C=C/c1c(C)cc(OC)c(C)c1C [ETRETINATE]	Inactive	2.9	>= 4			Active	5.3	>= 4	Inactive	0.6	< 4	Marginally Active	3.2	>= 4	Active	5.3	>= 4	2	1	Active	
CC(=O)OCC(CCn1cnc2cnc(N)nc21)COC(C)=O [FAMCICLOVIR]	Inactive	0	< 4			Inactive	0	< 4	Inactive	0	< 4	Inactive	0	< 4	Inactive	0	< 4	0	0	Inactive	
NC(N)=Nc1nc(CSCCC(N)=NS(N)(=O)=O)cs1 [FAMOTIDINE]	Inactive	0.4	>= 4	0	0	Inactive	0.8	>= 4	Inactive	0.4	>= 4	Inactive	0.7	>= 4	Inactive	0.8	>= 4				Composite Activity - Score (Hepatotoxicity [2]; Liver): Inactive
NC(=O)OCC(COC(N)=O)c1ccccc1 [FELBAMATE]	Active	8.3	>= 4			Active	11.7	>= 4	Active	15.8	>= 4	Active	11.7	>= 4	Active	15	>= 4	5	0	Active	
CCOC(=O)C1=C(C)NC(C)=C(C(=O)OC)C1c1cccc(Cl)c1Cl (stereo not drawn) [FELODIPINE]	Inactive	0.3	< 4			Inactive	0.3	< 4	Inactive	0.3	< 4	Inactive	0.3	< 4	Inactive	0.6	< 4	0	0	Inactive	
